Earlier results in US20180255779A1, “TRIAZOLE FORMULATIONS” (Vive Crop Protection Inc., priority 2013, published 2018).
Read-outs that look alike come from different tables or passages of the source.

Columns and labels:
[1] = octanol-water
[2] = not given; remark: listed apart in the source

SMILES | Photolytic Stability, DT50 (pH 7) | Kow, log P [1] | also measured
CC1(C)CC/C(=C\c2ccc(Cl)cc2)C1(O)Cn1cncn1 (racemic) [Triticonazole, (RS)-(E)-5-(4-chlorobenzylidene)-2,2-dimethyl-1-(1H-1,2,4-triazol-1-ylmethyl)cyclopentanol] | DT50: 3.1 d (aqueous photolysis at pH 7) |  | 
FC(F)C(F)(F)OCC(Cn1cncn1)c1ccc(Cl)cc1Cl (racemic) [Tetraconazole, (RS)-2-(2,4-dichlorophenyl)-3-(1H-1,2,4-triazol-1-yl)propyl 1,1,2,2-tetrafluoroethyl ether] | 217 days |  | 
Fc1ccc([C@]2(Cn3cncn3)O[C@H]2c2ccccc2Cl)cc1 (racemic) [Epoxiconazole, (2RS,3SR)-1-[3-(2-chlorophenyl)-2,3-epoxy-2-(4-fluorophenyl)propyl]-1H-1,2,4-triazole] | DT50: 52 d (aqueous photolysis at pH 7) |  | 
CC(C1CC1)C(O)(Cn1cncn1)c1ccc(Cl)cc1 (stereo not drawn) [Cyproconazole, (2RS,3RS;2RS,3SR)-2-(4-chlorophenyl)-3-cyclopropyl-1-(1H-1,2,4-triazol-1-yl)butan-2-ol] | DT 50: 40 d (aqueous photolysis at pH 7) |  | 
CC1COC(Cn2cncn2)(c2ccc(Oc3ccc(Cl)cc3)cc2Cl)O1 (stereo not drawn) [Difenoconazole, 3-chloro-4-[(2RS,4RS;2RS,4SR)-4-methyl-2-(1H-1,2,4-triazol-1-ylmethyl)-1,3-dioxolan-2-yl]phenyl 4-chlorophenyl ether] |  | log P: 4.36 | 
CCCCC(C#N)(Cn1cncn1)c1ccc(Cl)cc1 (racemic) [Myclobutanil, (RS)-2-(4-chlorophenyl)-2-(1H-1,2,4-triazol-1-ylmethyl)hexanenitrile] |  | log P: 2.89 | Solubility ([2]; heptane at 20° C.): 1020 mg/L (heptane at 20° C.); Solubility ([2]; methanol and acetone, both at 20° C.): 250000 mg/L (methanol and acetone, both at 20° C.); Solubility ([2]; water at 20° C.): 132 mg/L (water at 20° C.); Photolytic Stability, DT50 (aqueous photolysis at pH 7): DT50: 15 d (aqueous photolysis at pH 7)
CCCC1COC(Cn2cncn2)(c2ccc(Cl)cc2Cl)O1 (stereo not drawn) [Propiconazole, (2RS,4RS;2RS,4SR)-1-[2-(2,4-dichlorophenyl)-4-propyl-1,3-dioxolan-2-ylmethyl]-1H-1,2,4-triazole] |  | log P: 3.72 | Solubility ([2]; heptane at 20° C.): 1585 mg/L (heptane at 20° C.); Solubility ([2]; water at 20° C.): 150 mg/L (water at 20° C.)
